For two molecules, GI50 and TGI results are on record in PubChem BioAssay (NCI).

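Grown in 96-well plates, cells were treated for 48 hours with each compound at five concentrations. Insufficient inhibition: endpoint recorded as highest concentration tested. GI50 = concentration required for 50% inhibition of growth. At the TGI there is no net growth.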 Bounds are passed on as bounds.

Holding throughout (assay): NCI anticancer screen, dose series, 48 h
Experiment [1] has as its system SK-MEL-5 melanoma.
Experiment [2] deals with SNB-75 CNS.
Experiment [3] has as its system SF-268 CNS.
The subject of experiment [4] is 786-0 renal.
The test system of experiment [5] is NCI-H226 lung.
For experiment [6], the system named is DU-145 prostate.
Experiment [7] deals with SF-295 CNS.
The test system of experiment [8] is UO-31 renal.
The subject of experiment [9] is HCT-116 colon.
The subject of experiment [10] is RPMI-8226 leukemia.

For the molecule `O=[N+]([O-])/C=C/c1c[nH]c2ccccc12`, the GI50 is 16 µM in experiment [1]; 4.45 µM in [2]; 16 µM in [3]; 13.5 µM in [4]; 18.1 µM in experiment [5]; 15.5 µM in [6]. Moreover, the GI50 was 14 µM in experiment [7], 13.4 µM in [8], 3.32 µM in experiment [9] and 1.83 µM in experiment [10]. Moreover, the TGI turned out to be 32.1 µM in [1]; 16.3 µM in experiment [2]; 40.5 µM in experiment [3]; 27.2 µM in experiment [4]; 40.4 µM in experiment [5]; 32.5 µM in [6]. The TGI in [7] was determined as 30.6 µM; in experiment [8], 27.2 µM; in experiment [9], 11.3 µM; in experiment [10], 7.7 µM.
With `CCN(CC)CCOc1ccc(/C=C2\CC3C4CC=C5C[C@@H](N6CCCC6)CC[C@]5(C)C4CC[C@]3(C)[C@H]2O)cc1OC` (stereo not given in full), the GI50 in experiment [1] is 0.336 µM; in experiment [2] it was 14.6 µM; in [3] it was 11.8 µM; in experiment [4], 2.64 µM; in [5], 19.3 µM; in [6] it was 4.62 µM. Also, the GI50 was 3.86 µM in experiment [7], 4.29 µM in experiment [8], 1.38 µM in [9] and 2.24 µM in experiment [10]. Further, the TGI in [1] is 1.95 µM; in [2] it was more than 69.4 µM; in experiment [3], more than 76.6 µM; in experiment [4], 10.1 µM; in experiment [5] it was 45.2 µM; in [6], 34.7 µM. Besides, the TGI in experiment [7] came to 13.5 µM; in [8] it was 16.9 µM; in experiment [9], 11 µM; in [10], 6.34 µM.
